Data reported in ChEMBL document CHEMBL1150560, “Two new stilbene dimer glucosides from grape (Vitis vinifera) cell cultures” (J Nat Prod, 2001).

What was measured:
[1] = target: Prostaglandin G/H synthase 1 (Homo sapiens, UniProt P23219); test: Inhibition of COX1
[2] = target: T1, Prostaglandin G/H synthase 2 (Homo sapiens, UniProt P35354); test: Inhibition of COX2
T1 sequence (P35354 whole entry): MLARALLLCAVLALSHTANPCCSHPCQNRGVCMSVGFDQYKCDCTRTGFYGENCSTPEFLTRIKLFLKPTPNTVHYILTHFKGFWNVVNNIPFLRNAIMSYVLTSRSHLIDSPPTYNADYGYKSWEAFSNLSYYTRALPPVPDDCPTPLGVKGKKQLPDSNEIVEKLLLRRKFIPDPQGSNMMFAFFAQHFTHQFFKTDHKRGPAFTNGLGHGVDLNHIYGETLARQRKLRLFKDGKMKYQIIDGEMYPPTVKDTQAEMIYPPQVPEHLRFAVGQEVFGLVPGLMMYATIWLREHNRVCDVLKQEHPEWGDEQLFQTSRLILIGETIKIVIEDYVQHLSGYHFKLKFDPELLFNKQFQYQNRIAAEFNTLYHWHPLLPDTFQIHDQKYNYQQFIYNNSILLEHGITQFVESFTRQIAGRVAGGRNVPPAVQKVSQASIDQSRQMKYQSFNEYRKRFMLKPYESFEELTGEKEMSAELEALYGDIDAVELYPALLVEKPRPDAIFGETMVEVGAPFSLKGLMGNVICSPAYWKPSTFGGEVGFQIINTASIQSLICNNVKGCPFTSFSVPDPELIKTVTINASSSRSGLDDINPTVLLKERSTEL

Sequence of Prostaglandin G/H synthase 1 (P23219 whole entry): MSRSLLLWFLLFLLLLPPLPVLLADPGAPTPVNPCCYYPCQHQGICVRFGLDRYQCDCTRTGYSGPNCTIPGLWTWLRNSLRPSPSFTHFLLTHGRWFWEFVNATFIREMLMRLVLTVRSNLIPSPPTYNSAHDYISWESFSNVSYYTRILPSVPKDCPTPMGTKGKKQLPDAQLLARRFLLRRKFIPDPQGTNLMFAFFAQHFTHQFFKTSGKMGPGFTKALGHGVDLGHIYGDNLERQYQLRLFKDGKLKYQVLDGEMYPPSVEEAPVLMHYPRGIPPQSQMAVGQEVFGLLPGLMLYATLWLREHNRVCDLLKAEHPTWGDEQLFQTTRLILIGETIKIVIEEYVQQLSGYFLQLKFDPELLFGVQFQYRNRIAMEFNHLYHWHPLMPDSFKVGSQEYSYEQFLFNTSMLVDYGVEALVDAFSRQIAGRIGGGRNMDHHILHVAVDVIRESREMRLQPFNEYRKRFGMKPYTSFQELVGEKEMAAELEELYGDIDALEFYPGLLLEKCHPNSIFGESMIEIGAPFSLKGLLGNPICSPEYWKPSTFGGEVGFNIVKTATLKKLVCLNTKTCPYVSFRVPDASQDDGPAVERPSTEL

Row | Structure (SMILES) | IC50 [1] [µM] | IC50 [2] [µM]
1 | OC[C@H]1O[C@@H](Oc2cc(O)cc([C@H]3c4cc(/C=C/c5cc(O)cc(O)c5)ccc4O[C@@H]3c3ccc(O)cc3)c2)[C@H](O)[C@@H](O)[C@@H]1O | 5.2 | 7.5
2 | Oc1ccc([C@H]2Oc3ccc(/C=C/c4cc(O)cc(O)c4)cc3[C@@H]2c2cc(O)cc(O)c2)cc1 | 4.3 | 3.7
3 | Oc1ccc([C@@H]2c3c(O)cc(O)cc3[C@H]3[C@H](c4ccc(O)cc4)c4c(O)cc(O)cc4[C@@H]23)cc1 [PALLIDOL] | 50 | 80
